This is an account of results in patent publication EP4741392A1, “1H-PYRAZOLO[4,3-C]PYRIDINE COMPOUND, AND COMPOSITION THEREOF AND USE THEREOF” (Shenzhen TargetRx Co., Ltd., priority 2023, dated 2025).

pIC50: −log10 of the molar value.

What all share (type): biochemical
In experiment [1] the target is T1, TEC (Homo sapiens, UniProt P42680).
T1 construct: purchased Carna 08-182
T1 sequence (P42680 1-631): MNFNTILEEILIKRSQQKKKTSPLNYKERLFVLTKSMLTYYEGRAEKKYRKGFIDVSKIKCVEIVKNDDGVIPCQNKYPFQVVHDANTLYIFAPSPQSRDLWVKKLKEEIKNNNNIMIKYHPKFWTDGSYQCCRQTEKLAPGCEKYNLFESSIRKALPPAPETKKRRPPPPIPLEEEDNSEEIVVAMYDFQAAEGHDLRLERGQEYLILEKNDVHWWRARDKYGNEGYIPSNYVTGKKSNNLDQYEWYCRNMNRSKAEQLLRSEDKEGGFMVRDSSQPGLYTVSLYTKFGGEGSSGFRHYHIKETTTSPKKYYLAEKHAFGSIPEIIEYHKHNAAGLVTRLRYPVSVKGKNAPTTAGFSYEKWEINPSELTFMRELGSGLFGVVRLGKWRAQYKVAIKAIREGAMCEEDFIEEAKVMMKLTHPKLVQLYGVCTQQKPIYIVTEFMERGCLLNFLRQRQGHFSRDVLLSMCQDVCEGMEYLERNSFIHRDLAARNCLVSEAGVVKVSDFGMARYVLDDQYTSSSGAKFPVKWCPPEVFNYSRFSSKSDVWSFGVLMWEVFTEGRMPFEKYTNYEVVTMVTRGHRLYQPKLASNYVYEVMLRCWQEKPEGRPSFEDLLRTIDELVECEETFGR
Nature of the experiment: Kinase activity inhibition assay (HTRF TK Kit), selectivity. An outline of the steps: (§1)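 Percent inhibition, derived from time-resolved FRET ratios (665/620 nm) relative to no-enzyme and DMSO wells, was fitted against log concentration to give IC50. Reactions contained kinase, substrate and ATP at room temperature, followed by 1 h detection.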
Background: TR-FRET usually uses a lanthanide donor and a delayed reading to cut background.

The target of experiment [2] is T2, EGFR (Homo sapiens, UniProt P00533).
T2 construct: purchased Carna 08-115
The experiment is described as above. An outline of the steps:
as §1

The target in experiment [3] is T3, ITK (Homo sapiens, UniProt Q08881).
T3 construct: purchased Carna 08-181
T3 sequence (Q08881 1-620): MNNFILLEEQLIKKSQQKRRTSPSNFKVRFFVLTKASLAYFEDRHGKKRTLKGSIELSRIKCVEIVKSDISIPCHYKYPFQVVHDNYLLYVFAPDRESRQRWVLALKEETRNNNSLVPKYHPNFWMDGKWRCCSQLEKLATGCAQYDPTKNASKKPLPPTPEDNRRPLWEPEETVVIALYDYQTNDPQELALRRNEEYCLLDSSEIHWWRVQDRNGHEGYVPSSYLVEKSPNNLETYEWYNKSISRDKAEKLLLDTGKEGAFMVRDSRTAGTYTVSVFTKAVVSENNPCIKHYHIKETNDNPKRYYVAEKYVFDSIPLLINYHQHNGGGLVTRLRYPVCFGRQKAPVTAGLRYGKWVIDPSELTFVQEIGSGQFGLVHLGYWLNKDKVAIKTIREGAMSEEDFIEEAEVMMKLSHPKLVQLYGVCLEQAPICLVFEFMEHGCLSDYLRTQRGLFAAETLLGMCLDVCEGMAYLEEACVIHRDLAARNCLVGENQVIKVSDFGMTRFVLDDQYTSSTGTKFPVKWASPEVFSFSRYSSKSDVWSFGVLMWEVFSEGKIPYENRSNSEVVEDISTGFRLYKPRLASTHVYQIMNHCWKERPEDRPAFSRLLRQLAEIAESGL
The experiment is described as above. An outline of the steps: as §1

The target of experiment [4] is T4, BTK T474I (Homo sapiens, UniProt Q06187, T474I).
T4 construct: purchased SignalChem B10-12HH
Nature of the experiment: Kinase activity inhibition assay (HTRF TK Kit). An outline of the steps:
as §1

Experiment [5] has as its target T5, BTK C481S (Homo sapiens, UniProt Q06187, C481S).
T5 construct: purchased Carna 08-547
Nature of the experiment: Kinase activity inhibition assay (HTRF TK Kit). An outline of the steps:
as §1

The target in experiment [6] is T6, BTK kinase (Homo sapiens, UniProt Q06187).
T6 construct: purchased Invitrogen PV3587
The experiment is described as follows: Kinase activity inhibition assay (HTRF TK Kit). The procedure, abridged: as §1

T5 sequence (Q06187 whole entry C481S): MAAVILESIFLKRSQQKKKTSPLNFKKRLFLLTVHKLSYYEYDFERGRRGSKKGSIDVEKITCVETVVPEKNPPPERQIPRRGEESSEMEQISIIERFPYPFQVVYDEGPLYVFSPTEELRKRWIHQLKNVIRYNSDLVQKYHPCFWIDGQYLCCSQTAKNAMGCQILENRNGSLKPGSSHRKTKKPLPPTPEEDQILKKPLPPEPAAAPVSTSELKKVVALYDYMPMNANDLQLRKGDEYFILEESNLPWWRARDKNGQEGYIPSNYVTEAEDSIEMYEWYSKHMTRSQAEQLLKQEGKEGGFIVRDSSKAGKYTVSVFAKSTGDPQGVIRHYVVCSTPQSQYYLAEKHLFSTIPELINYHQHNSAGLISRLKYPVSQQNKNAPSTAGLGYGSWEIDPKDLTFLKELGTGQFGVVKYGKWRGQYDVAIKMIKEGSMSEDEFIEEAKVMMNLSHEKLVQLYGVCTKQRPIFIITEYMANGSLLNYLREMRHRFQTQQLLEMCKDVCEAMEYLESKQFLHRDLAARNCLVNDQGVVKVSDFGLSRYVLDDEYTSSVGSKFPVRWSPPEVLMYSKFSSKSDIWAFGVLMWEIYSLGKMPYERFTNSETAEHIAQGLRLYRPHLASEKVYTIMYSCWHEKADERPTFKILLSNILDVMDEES
T6 sequence (Q06187 whole entry): as the sequence (Q06187 whole entry C481S) above, with S481C counted along it
T2 sequence (P00533 669-1210 limits assumed): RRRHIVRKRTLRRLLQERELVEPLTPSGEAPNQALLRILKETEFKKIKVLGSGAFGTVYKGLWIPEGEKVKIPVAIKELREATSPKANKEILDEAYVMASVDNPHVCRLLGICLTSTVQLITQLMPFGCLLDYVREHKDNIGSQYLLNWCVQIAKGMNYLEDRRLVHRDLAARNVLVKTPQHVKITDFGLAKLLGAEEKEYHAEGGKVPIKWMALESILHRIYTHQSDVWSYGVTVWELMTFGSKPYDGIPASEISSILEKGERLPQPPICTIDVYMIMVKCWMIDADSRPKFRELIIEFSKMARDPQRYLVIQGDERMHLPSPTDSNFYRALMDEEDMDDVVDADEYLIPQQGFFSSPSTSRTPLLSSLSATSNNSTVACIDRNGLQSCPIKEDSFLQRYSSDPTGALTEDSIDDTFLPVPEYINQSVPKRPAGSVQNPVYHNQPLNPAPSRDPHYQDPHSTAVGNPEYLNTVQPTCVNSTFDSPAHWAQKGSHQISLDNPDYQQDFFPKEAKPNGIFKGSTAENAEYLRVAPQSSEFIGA
T4 sequence (Q06187 whole entry T474I): as the sequence (Q06187 whole entry C481S) above, with T474I, S481C counted along it

As to `COCCOc1ccc(-c2cnc(-c3ccc(CNC(=O)c4cc(F)ccc4OC)cc3)c3c(N)n[nH]c23)nc1` [Example 59, N-(4-(3-amino-7-(5-(2-methoxyethoxy)pyridin-2-yl)-1H-pyrazolo[4,3-c]pyridin-4-yl)benzyl)-5-fluoro-2-methoxybenzamide], the negative logarithm of the IC50 (pIC50) is 7.30 to 8.30 in experiment [1]; 7.30 to 8.30 in experiment [2]; 6.30 to 7.30 in experiment [3]; 7.30 to 8.30 in experiment [4]; at least 9.00 in experiment [5]; at least 9.00 in experiment [6].

As to `COc1ccc(F)cc1C(=O)NCc1ccc(-c2ncc(-c3ccc(OCCN(C)C)cn3)c3[nH]nc(N)c23)cc1` [Example 60, N-(4-(3-amino-7-(5-(2-(dimethylamino)ethoxy)pyridin-2-yl)-1H-pyrazolo[4,3-c]pyridin-4-yl)benzyl)-5-fluoro-2-methoxybenzamide], the pIC50 in experiment [1] was 7.30 to 8.30; in experiment [2] it was 7.30 to 8.30; in experiment [3], 6.30 to 7.30; in experiment [4], 7.30 to 8.30; in experiment [5], at least 9.00; in experiment [6], at least 9.00.

As to `COc1ccc(F)cc1C(=O)NCc1ccc(-c2ncc(-c3ccc(OCCN4CCOCC4)cn3)c3[nH]nc(N)c23)cc1` [Example 61, N-(4-(3-amino-7-(5-(2-morpholinoethoxy)pyridin-2-yl)-1H-pyrazolo[4,3-c]pyridin-4-yl)benzyl)-5-fluoro-2-methoxybenzamide], the pIC50 in experiment [1] is 7.30 to 8.30; in experiment [2], 7.30 to 8.30; in experiment [3], 6.30 to 7.30; in experiment [4], 7.30 to 8.30; in experiment [5] it was at least 9.00; in experiment [6] it was at least 9.00.

As to `COc1ccc(F)cc1C(=O)NCc1ccc(-c2ncc(-c3ccc(OCCN4CCCC4)cn3)c3[nH]nc(N)c23)cc1` [Example 62, N-(4-(3-amino-7-(5-(2-(pyrrolidin-1-yl)ethoxy)pyridin-2-yl)-1H-pyrazolo[4,3-c]pyridin-4-yl)benzyl)-5-fluoro-2-methoxybenzamide], the negative-log IC50 (pIC50) is 6.30 to 7.30 in experiment [1]; 7.30 to 8.30 in experiment [2]; 6.30 to 7.30 in experiment [3]; 7.30 to 8.30 in experiment [4]; 8.30 to 9.00 in experiment [5]; 8.30 to 9.00 in experiment [6].

Consider `COc1ccc(F)cc1C(=O)NCc1ccc(-c2ncc(-c3ccc(C(C)(C)O)cn3)c3[nH]nc(N)c23)cc1` [Example 65, N-(4-(3-amino-7-(5-(2-hydroxypropan-2-yl)pyridin-2-yl)-1H-pyrazolo[4,3-c]pyridin-4-yl)benzyl)-5-fluoro-2-methoxybenzamide], for which the pIC50 was 8.30 to 9.00 in experiment [1]; 7.30 to 8.30 in experiment [2]; 6.30 to 7.30 in experiment [3]; 8.30 to 9.00 in experiment [4]; 8.30 to 9.00 in experiment [5]; 8.30 to 9.00 in experiment [6].

As to `COc1ccc(F)cc1C(=O)NCc1ccc(-c2ncc(-c3ccc(CN4CCCCC4)cn3)c3[nH]nc(N)c23)cc1` [Example 66, N-(4-(3-amino-7-(5-(piperidin-1-ylmethyl)pyridin-2-yl)-1H-pyrazolo[4,3-c]pyridin-4-yl)benzyl)-5-fluoro-2-methoxybenzamide], the negative logarithm of the IC50 (pIC50) in experiment [1] is 7.30 to 8.30; in experiment [2], 7.30 to 8.30; in experiment [3], 6.30 to 7.30; in experiment [4], 7.30 to 8.30; in experiment [5] it was at least 9.00; in experiment [6] it was at least 9.00.

Regarding `COc1ccc(F)cc1C(=O)NCc1ccc(-c2ncc(-c3ccc(CN4CCOCC4)cn3)c3[nH]nc(N)c23)cc1` [Example 67, N-(4-(3-amino-7-(5-(morpholinomethyl)pyridin-2-yl)-1H-pyrazolo[4,3-c]pyridin-4-yl)benzyl)-5-fluoro-2-methoxybenzamide], the pIC50 in experiment [1] was 7.30 to 8.30; in experiment [2], 7.30 to 8.30; in experiment [3], 6.30 to 7.30; in experiment [4], 6.30 to 7.30; in experiment [5] it was at least 9.00; in experiment [6], at least 9.00.

Turning to `COc1ccc(F)cc1C(=O)NCc1ccc(-c2ncc(-c3ccc(CN4CCN(C)CC4)cn3)c3[nH]nc(N)c23)cc1` [Example 68, N-(4-(3-amino-7-(5-((4-methylpiperazin-1-yl)methyl)pyridin-2-yl)-1H-pyrazolo[4,3-c]pyridin-4-yl)benzyl)-5-fluoro-2-methoxybenzamide], the negative-log IC50 (pIC50) was 7.30 to 8.30 in experiment [1]; 7.30 to 8.30 in experiment [2]; 6.30 to 7.30 in experiment [3]; 7.30 to 8.30 in experiment [4]; 8.30 to 9.00 in experiment [5]; 8.30 to 9.00 in experiment [6].

Turning to `COc1ccc(F)cc1C(=O)NCc1ccc(-c2ncc(-c3cc4ccccn4n3)c3[nH]nc(N)c23)cc1` [Example 69, N-(4-(3-amino-7-(pyrazolo[1,5-a]pyridin-2-yl)-1H-pyrazolo[4,3-c]pyridin-4-yl)benzyl)-5-fluoro-2-methoxybenzamide], the pIC50 was 8.30 to 9.00 in experiment [1]; 7.30 to 8.30 in experiment [2]; 6.30 to 7.30 in experiment [3]; 7.30 to 8.30 in experiment [4]; at least 9.00 in experiment [5]; at least 9.00 in experiment [6].

As for `COc1ccc(F)cc1C(=O)NCc1ccc(-c2ncc(-c3cnn4cccnc34)c3[nH]nc(N)c23)cc1` [Example 70, N-(4-(3-amino-7-(pyrazolo[1,5-a]pyrimidin-3-yl)-1H-pyrazolo[4,3-c]pyridin-4-yl)benzyl)-5-fluoro-2-methoxybenzamide], the pIC50 in experiment [1] was 7.30 to 8.30; in experiment [2], 6.30 to 7.30; in experiment [3], below 6.30; in experiment [4], 6.30 to 7.30; in experiment [5], 8.30 to 9.00; in experiment [6], 8.30 to 9.00.

Turning to `COc1ccc(F)cc1C(=O)NCc1ccc(-c2ncc(-c3cc4n(n3)CCN(C)C4)c3[nH]nc(N)c23)cc1` [Example 71, N-(4-(3-amino-7-(5-methyl-4,5,6,7-tetrahydropyrazolo[1,5-a]pyrazin-2-yl)-1H-pyrazolo[4,3-c]pyridin-4-yl)benzyl)-5-fluoro-2-methoxybenzamide], the negative-log IC50 (pIC50) was 7.30 to 8.30 in experiment [1]; 7.30 to 8.30 in experiment [2]; 6.30 to 7.30 in experiment [3]; 7.30 to 8.30 in experiment [4]; at least 9.00 in experiment [5]; 8.30 to 9.00 in experiment [6].

For the compound `CCN1CCn2nc(-c3cnc(-c4ccc(CNC(=O)c5cc(F)ccc5OC)cc4)c4c(N)n[nH]c34)cc2C1` [Example 72, N-(4-(3-amino-7-(5-ethyl-4,5,6,7-tetrahydropyrazolo[1,5-a]pyrazin-2-yl)-1H-pyrazolo[4,3-c]pyridin-4-yl)benzyl)-5-fluoro-2-methoxybenzamide], the negative-log IC50 (pIC50) in experiment [1] is 7.30 to 8.30; in experiment [2] it was 7.30 to 8.30; in experiment [3] it was 6.30 to 7.30; in experiment [4] it was 7.30 to 8.30; in experiment [5], at least 9.00; in experiment [6], at least 9.00.

On to `COc1ccc(F)cc1C(=O)NCc1ccc(-c2ncc(-c3ccc(N4CCN(C)CC4)cn3)c3[nH]nc(N)c23)cc1` [Example 73, N-(4-(3-amino-7-(5-(4-methylpiperazin-1-yl)pyridin-2-yl)-1H-pyrazolo[4,3-c]pyridin-4-yl)benzyl)-5-fluoro-2-methoxybenzamide], for which the pIC50 was 7.30 to 8.30 in experiment [1]; 7.30 to 8.30 in experiment [2]; 6.30 to 7.30 in experiment [3]; 7.30 to 8.30 in experiment [4]; at least 9.00 in experiment [5]; at least 9.00 in experiment [6].

As to `COc1ccc(F)cc1C(=O)NCc1ccc(-c2ncc(-c3ccc(N4CCN(C)C[C@@H]4C)cn3)c3[nH]nc(N)c23)cc1` [Example 74, (S)-N-(-4-(3-amino-7-(5-(2,4-dimethylpiperazin-1-yl)pyridin-2-yl) 1H-pyrazolo[4,3-c]pyridin-4-yl)benzyl)-5-fluoro-2-methoxybenzamide], the negative logarithm of the IC50 (pIC50) was below 6.30 in experiment [1]; 7.30 to 8.30 in experiment [2]; 6.30 to 7.30 in experiment [3]; 7.30 to 8.30 in experiment [4]; 8.30 to 9.00 in experiment [5]; 8.30 to 9.00 in experiment [6].

One may read the pIC50 as −log10 of the IC50, conventionally taken in molar units.
